According to patent US20220257595A1, “MACITENTAN FOR USE IN TREATING PORTOPULMONARY HYPERTENSION” (ACTELION PHARMACEUTICALS LTD, priority 2019, published 2022):

Tested on: patients with PoPH
Assay: PORTICO safety: treatment-emergent AEs, SAEs, AESIs, deaths, discontinuations
Assay type: in vivo
From the text: For the evaluation of treatment-emergent safety endpoints in the DB phase, the observation period for each individual subject started at the time of the first administration of macitentan or placebo and ended with the start of OL treatment or 30 days after DB treatment discontinuation (whichever occurred first). The safety variables listed below apply to the DB treatment-emergent period and the macitentan treatment-emergent period. The DB treatment-emergent period was defined as the period from the DB treatment start date up to the EOT-DB+30 days or to the EOT-DB for patients entering OL. The macitentan treatment-emergent period was defined as the period from the first intake of macitentan up to end of macitentan treatment (EOMT)+30 days. EOMT was defined as EOT-DB (for patient who received macitentan only in the DB period) or EOT-OL when applicable. For patients entering OLE, the EOMT is EOT-OL. • Treatment-emergent AEs • Treatment-emergent deaths • Treatment-emergent serious adverse events (SAEs) • AEs leading to premature discontinuation of study treatment • Occurrence of post-baseline LFT (ALT and/or AST) abnormalities, classified as: • ≥3×ULN; • ≥5×ULN; • ≥8×ULN; • ≥3×ULN and <5×ULN; • […] and <8×ULN. • Occurrence of post-baseline ALT and/or AST abnormality 3×ULN and concomitant (i.e., at the same time) total bilirubin ≥2×ULN • Occurrence of post-baseline ALT and/or AST abnormality ≥3×ULN and concomitant (i.e., at the same time) total bilirubin ≥2×ULN and increased as compared to baseline • Occurrence of hemoglobin abnormalities, classified as: • ≤80 g/L, • >80 and ≤100 g/L, • decrease from baseline ≥20 g/L and <50 g/L, • decrease from baseline ≥50 g/L, • <100 g/L and concurrent (i.e., at the same time) decrease from baseline ≥20 g/L. • Other treatment-emergent marked laboratory abnormalities • Change from baseline/macitentan baseline to EOT-DB/EOMT in vital signs • Change from baseline/macitentan baseline to EOT-DB/EOMT in laboratory variables • Change from baseline/macitentan baseline to EOT-DB/EOMT in Child-Pugh classification • Change from baseline/macitentan baseline to EOT-DB/EOMT in MELD score
(i) Adverse events: All AEs occurring after study start (i.e., signing of informed consent) and up to 30 days after study treatment discontinuation were required to be recorded. AEs still ongoing more than 30 days after study treatment discontinuation were required to be followed up until they were no longer considered clinically relevant.
(ii) Serious adverse events, including associated with study design or protocol-mandated procedures: During the screening period, all SAEs occurring after study start (i.e., signing of informed consent) were required to be recorded (whether considered associated or not associated to study design or study-mandated procedures). All SAEs, regardless of investigator-attributed causal relationship, occurring during the treatment period up to the end of the 30-day follow up period, were required to be reported. SAEs still ongoing at the EOS visit were required to be followed up until resolution or stabilization, or until the event outcome was provided, e.g., death. New SAEs occurring after the 30-day follow-up period were required to be reported within 24 hours.
In addition, the following adverse events of special interest (AESIs) were analyzed: • “Edema and fluid retention”
Any treatment-emergent AE with PT listed in the Standardised MedDRA Query (SMQ) “Haemodynamic oedema, effusions and fluid overload (SMQ)” or with PT equal to “Pulmonary congestion” defined in the latest available MedDRA version, with the exception of PTs containing “site”. • “Anemia”

[1] = DB phase, Safety set, 10 mg, N = 43
[2] = DB phase, macitentan group (6 patients)
[3] = DB phase, macitentan group, 7 patients
[4] = OL phase, Macitentan treated set, N = 84
[5] = macitentan DB + OL phase, Macitentan treated set, N = 84

## CCCNS(=O)(=O)Nc1ncnc(OCCOc2ncc(Br)cn2)c1-c1ccc(Br)cc1 [macitentan, N-[5-(4-Bromophenyl)-6-[2-[(5-bromo-2-pyrimidinyl)oxy]ethoxy]-4-pyrimidinyl]-N′-propylsulfamide]
DB phase
  AEs that occurred more frequently than in the placebo group: peripheral edema/peripheral swelling, bronchitis and decreased hemoglobin/anemia
  Deaths: no deaths
[1]
  AE leading to premature discontinuation of study treatment, Alveolitis: 1 (2.3) n (%)
  AE leading to premature discontinuation of study treatment, Anaemia: 1 (2.3) n (%)
  AE leading to premature discontinuation of study treatment, Hypersensitivity: 1 (2.3) n (%)
  AE leading to premature discontinuation of study treatment, Pulmonary arterial hypertension: 1 (2.3) n (%)
  AE of special interest Anemia, Pancytopenia: 0 n (%)
  AE of special interest Hepatic disorders, Blood bilirubin increased: 0 n (%)
  AE of special interest Hepatic disorders, Gamma-glutamyltransferase increased: 0 n (%)
  Subjects with at least one AE: 36 (83.7) n (%)
  Subjects with at least one AE leading to study drug discontinuation: 4 (9.3) n (%)
  Subjects with at least one Drug-Related AE: 19 (44.2) n (%)
  Subjects with at least one Drug-Related serious AE: 5 (11.6) n (%)
  Subjects with at least one Fatal serious AE: 0 n (%)
  Subjects with at least one Serious AE: 9 (20.9) n (%)
  Subjects with at least one Severe AE: 7 (16.3) n (%)
  Treatment-emergent AE, Abdominal pain: 2 (4.7) n (%)
  Treatment-emergent AE, Acute kidney injury: 2 (4.7) n (%)
  Treatment-emergent AE, Back pain: 2 (4.7) n (%)
  Treatment-emergent AE, Bronchitis: 4 (9.3) n (%)
  Treatment-emergent AE, Cough: 0 n (%)
  Treatment-emergent AE, Diarrhoea: 1 (2.3) n (%)
  Treatment-emergent AE, Dizziness: 2 (4.7) n (%)
  Treatment-emergent AE, Dry mouth: 1 (2.3) n (%)
  Treatment-emergent AE, Dyspnoea: 1 (2.3) n (%)
  Treatment-emergent AE, Fall: 2 (4.7) n (%)
  Treatment-emergent AE, Foot fracture: 1 (2.3) n (%)
  Treatment-emergent AE, Headache: 7 (16.3) n (%)
  Treatment-emergent AE, Hypokalaemia: 2 (4.7) n (%)
  Treatment-emergent AE, Hypotension: 2 (4.7) n (%)
  Treatment-emergent AE, Muscle spasms: 0 n (%)
  Treatment-emergent AE, Nausea: 1 (2.3) n (%)
  Treatment-emergent AE, Pain in extremity: 2 (4.7) n (%)
  Treatment-emergent AE, Presyncope: 2 (4.7) n (%)
  Treatment-emergent AE, Rhinitis: 2 (4.7) n (%)
  Treatment-emergent AE, Right ventricular failure: 3 (7.0) n (%)
  Treatment-emergent AE, Tachycardia: 2 (4.7) n (%)
  Treatment-emergent AE, Urinary tract infection: 2 (4.7) n (%)
  Treatment-emergent AE, Viral upper respiratory tract infection: 2 (4.7) n (%)
  Treatment-emergent SAE, Acute kidney injury: 1 (2.3) n (%)
  Treatment-emergent SAE, Alveolitis: 1 (2.3) n (%)
  Treatment-emergent SAE, Aneurysm repair: 0 n (%)
  Treatment-emergent SAE, Ascites: 1 (2.3) n (%)
  Treatment-emergent SAE, Asthma: 1 (2.3) n (%)
  Treatment-emergent SAE, Atrial fibrillation: 1 (2.3) n (%)
  Treatment-emergent SAE, Fluid overload: 1 (2.3) n (%)
  Treatment-emergent SAE, Haemoptysis: 1 (2.3) n (%)
  Treatment-emergent SAE, Hepatic encephalopathy: 1 (2.3) n (%)
  Treatment-emergent SAE, Hepatocellular carcinoma: 1 (2.3) n (%)
  Treatment-emergent SAE, Hypersensitivity: 1 (2.3) n (%)
  Treatment-emergent SAE, Ileus: 1 (2.3) n (%)
  Treatment-emergent SAE, Left ventricular failure: 1 (2.3) n (%)
  Treatment-emergent SAE, Localised infection: 0 n (%)
  Treatment-emergent SAE, Localised oedema: 1 (2.3) n (%)
  Treatment-emergent SAE, Lung infection: 1 (2.3) n (%)
  Treatment-emergent SAE, Oedema peripheral: 1 (2.3) n (%)
  Treatment-emergent SAE, Presyncope: 1 (2.3) n (%)
  Treatment-emergent SAE, Pulmonary arterial hypertension: 1 (2.3) n (%)
  Treatment-emergent SAE, Pulmonary toxicity: 1 (2.3) n (%)
  Treatment-emergent SAE, Right ventricular failure: 2 (4.7) n (%)
  Treatment-emergent SAE, Syncope: 1 (2.3) n (%)
  Treatment-emergent SAE, Troponin I increased: 1 (2.3) n (%)
  Treatment-emergent SAE, Urosepsis: 1 (2.3) n (%)
  Treatment-emergent SAE, Vascular procedure complication: 0 n (%)
DB phase, macitentan group
  Anemia AE cases leading to discontinuation of study treatment: 1 case
  Edema/fluid retention SAEs (in one patient: peripheral edema, localized edema, fluid overload): 3 SAEs
  Patients who discontinued treatment due to AEs: 4 patients
  Patients who had SAEs: 20.9%
  Patients with hepatic disorder SAEs: 3 patients
[2]
  Patients with anemia AEs: 14.0%
  Patients with hepatic disorder AEs: 14.0%
DB phase, macitentan group (13 patients)
  Patients with edema and fluid retention AEs: 30.2%
DB phase, macitentan group, 4 patients
  Peripheral edema considered related to study treatment: 9.3%
[3]
  Headache considered related to study treatment: 16.3%
  Patients with severe AEs: 16.3%
OL and OLE
  Deaths considered related to macitentan treatment by the investigator: None of the deaths were considered by the investigator to be related
OL phase
  Patients who died: 4 patients
[4]
  Reason for death, Hepatocellular Carcinoma: 1 (1.2) n (%)
  Reason for death, Pneumonia: 1 (1.2) n (%)
  Reason for death, Pulmonary Arterial Hypertension: 1 (1.2) n (%)
  Reason for death, Subdural Haematoma: 1 (1.2) n (%)
  Total deaths: 4 (4.8) n (%)
Across OL phase (and after end of its follow-up) and ongoing OLE phase
  Macitentan-treated patients who died: 7 patients
[5]
  AE leading to premature discontinuation of study treatment, Alveolitis: 1 (1.2) n(%)
  AE leading to premature discontinuation of study treatment, Anaemia: 2 (2.4) n(%)
  AE leading to premature discontinuation of study treatment, Ascites: 1 (1.2) n(%)
  AE leading to premature discontinuation of study treatment, Diarrhoea: 1 (1.2) n(%)
  AE leading to premature discontinuation of study treatment, Hypersensitivity: 1 (1.2) n(%)
  AE leading to premature discontinuation of study treatment, Liver function test increased: 1 (1.2) n(%)
  AE leading to premature discontinuation of study treatment, Oedema peripheral: 2 (2.4) n(%)
  AE leading to premature discontinuation of study treatment, Pneumonia: 1 (1.2) n(%)
  AE leading to premature discontinuation of study treatment, Pulmonary arterial hypertension: 1 (1.2) n(%)
  AEs leading to premature discontinuation of study treatment, Subjects with at least one AE: 10 (11.9) n(%)
  AEs of special interest Anemia, Anaemia postoperative: 1 (1.2) n (%)
  AEs of special interest Anemia, Haematocrit decreased: 1 (1.2) n (%)
  AEs of special interest Anemia, Subjects with atleast one AE: 22 (26.2) n (%)
  AEs of special interest Edema and fluid retention, Fluid overload: 1 (1.2) n (%)
  AEs of special interest Edema and fluid retention, Fluid retention: 1 (1.2) n (%)
  AEs of special interest Edema and fluid retention, Generalised oedema: 1 (1.2) n (%)
  AEs of special interest Edema and fluid retention, Joint swelling: 1 (1.2) n (%)
  AEs of special interest Edema and fluid retention, Localised oedema: 1 (1.2) n (%)
  AEs of special interest Edema and fluid retention, Peripheral swelling: 2 (2.4) n (%)
  AEs of special interest Edema and fluid retention, Subjects with atleast one AE: 26 (31.0) n (%)
  AEs of special interest Edema and fluid retention, Swelling: 1 (1.2) n (%)
  AEs of special interest Hepatic disorders, Ammonia increased: 2 (2.4) n (%)
